Laboratory results taken from PubChem BioAssay (NCI).
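Values below derive from 48-hour exposures of cells grown in 96-well plates, with endpoints linearly interpolated between the two concentrations bracketing the appropriate inhibition level. GI50 marks 50% less growth. TGI: concentration producing complete growth inhibition.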

Columns and labels:
Assay in all cases: NCI-60 cell line screen, 48 h
MALME-3M melanoma = tested on: MALME-3M melanoma
OVCAR-5 ovarian = tested on: OVCAR-5 ovarian
HCC-2998 colon = tested on: HCC-2998 colon
KM12 colon = tested on: KM12 colon
A549 NSCLC = tested on: A549 NSCLC
NCI-H226 lung = tested on: NCI-H226 lung
SN12C renal = tested on: SN12C renal
SF-539 CNS = tested on: SF-539 CNS
SK-OV-3 ovarian = tested on: SK-OV-3 ovarian
UACC-62 melanoma = tested on: UACC-62 melanoma

SMILES | TGI (MALME-3M melanoma) [µM] | TGI (OVCAR-5 ovarian) [µM] | TGI (HCC-2998 colon) [µM] | TGI (KM12 colon) [µM] | TGI (A549 NSCLC) [µM] | TGI (NCI-H226 lung) [µM] | TGI (SN12C renal) [µM] | TGI (SF-539 CNS) [µM] | TGI (SK-OV-3 ovarian) [µM] | TGI (UACC-62 melanoma) [µM] | GI50 (MALME-3M melanoma) [µM] | GI50 (OVCAR-5 ovarian) [µM] | GI50 (HCC-2998 colon) [µM] | GI50 (KM12 colon) [µM] | GI50 (A549 NSCLC) [µM] | GI50 (NCI-H226 lung) [µM] | GI50 (SN12C renal) [µM] | GI50 (SF-539 CNS) [µM] | GI50 (SK-OV-3 ovarian) [µM] | GI50 (UACC-62 melanoma) [µM]
CC1(O)CCn2c(=O)c3cc4ccccc4cc3c(=O)n2C1O (stereo not given) | > 100 | > 100 | > 100 | > 100 | > 100 | > 100 | > 100 | > 100 | > 100 | > 100 | – | – | – | – | – | – | – | – | – | –
O=C(O)c1ccccc1C(=O)c1ccc2c(c1)Cc1ccccc1-2 | > 100 | > 100 | 88 | > 100 | > 100 | > 100 | > 100 | > 100 | > 100 | > 100 | – | – | – | – | – | – | – | – | – | –
CCOC(OC1=C(C#N)CCCC1)C(CC)[Se]c1ccccc1 (stereo not given) | > 100 | 86.4 | > 100 | > 100 | > 100 | 49.6 | 36.9 | 31.7 | > 100 | 48 | – | – | – | – | – | – | – | – | – | –
OCc1ccc(N2CCOCC2)cc1Cl | > 100 | 10.6 | > 100 | > 100 | > 100 | 2.37 | > 100 | > 100 | > 100 | > 91.2 | > 100 | 2.42 | > 57.1 | > 100 | > 100 | 0.705 | > 100 | > 100 | > 100 | 14.4
CC(=O)n1c(=O)c2cc3c(=O)n(-c4cccc(C#N)c4)c(=O)c3cc2c1=O | > 100 | > 100 | > 100 | > 100 | > 100 | > 100 | > 100 | > 100 | > 100 | > 100 | – | – | – | – | – | – | – | – | – | –
C/C1=C\CC[C@@](C)(O)[C@@H]2C[C@H](CC/C(C)=C/CC1)C1(CC1)C(=O)O2 | 64.8 | > 100 | 66.6 | 68.5 | > 100 | 76.2 | 56.2 | > 100 | > 100 | 37.3 | 21.6 | 54.9 | 30.4 | 25.4 | 42.8 | 25.8 | 21.5 | 49.4 | 39 | 15.2
Cn1c(=O)nc2n(-c3ccc(Cl)c(C(F)(F)F)c3)c3ccccc3nc-2c1=O | 34.7 | > 100 | 80.8 | > 100 | > 86.3 | > 100 | > 100 | > 79.9 | > 100 | 35.4 | – | – | – | – | – | – | – | – | – | –
COc1ccc(C2=C(N3CCc4ccccc43)C(=O)NC2=O)cc1 | > 25 | > 25 | > 25 | > 25 | > 25 | > 25 | > 25 | > 25 | > 25 | > 25 | > 25 | > 25 | > 25 | > 25 | > 25 | > 25 | > 25 | > 25 | > 25 | > 19.9
CCn1c(-c2nonc2N)nc2ccncc21 | > 25 | > 25 | > 25 | > 25 | > 25 | > 25 | > 25 | > 25 | > 25 | > 25 | > 25 | > 25 | > 25 | > 25 | > 25 | > 25 | > 25 | > 25 | > 25 | > 25
Cc1cccc(N(CC(=O)O)S(=O)(=O)c2ccccc2)c1 | > 100 | > 100 | > 100 | > 100 | > 100 | > 100 | > 100 | > 100 | > 100 | > 100 | – | – | – | – | – | – | – | – | – | –
COc1cccc2c(=O)c3c(sc12)c(NCCCNCCO)nc1ccccc13 | 3.15 | 3.16 | 3.21 | 3.23 | 3.11 | 3.46 | 3.06 | 3.1 | 19.4 | 3.03 | 1.64 | 1.58 | 1.59 | 1.72 | 1.42 | 1.6 | 1.51 | 1.68 | 3.39 | 1.6
COc1ccc(C2Oc3c(c(O)cc4c3[C@H](c3ccc(O)cc3O)[C@H](O)C(c3ccc(O)c(O)c3)O4)C[C@@H]2O)cc1O (stereo not given in full) | > 100 | > 100 | > 100 | > 100 | > 100 | > 100 | > 100 | > 100 | > 100 | > 100 | – | – | – | – | – | – | – | – | – | –
